Read-outs that look alike come from different tables or passages of the source.
How the values were obtained:
[1] = tested on: Key Broadleaf Weed and Crop Species; assay: Post-emergent Test II herbicidal activity (Table 5); assay type: in vivo; conditions: post-emergence, 336 h, post-emergent, 14 days after application; for pest or weed control at 70 g/ha: 70 g ai/ha; for pest or weed control at 140 g/ha: 140 g ai/ha
Outline: (§1)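 Scoring: visual, 0–100% injury at 14 d versus untreated. Treatment: overhead track spray, 187 L/ha, onto plants at the first–second true leaf stage. Growth: greenhouse, ~15 h light, 23–29 °C day, 22–28 °C night.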

[2] = tested on: Key Grass and Sedge Weeds as well as Grass Crops; assay: Post-emergent Test II herbicidal activity (Table 6); assay type: in vivo; conditions: post-emergence, 336 h; for pest or weed control at 70 g/ha: application rate 70 g ai/ha; for pest or weed control at 140 g/ha: application rate 140 g ai/ha
Outline: as §1

[3] = ABUTH: velvetleaf (Abutilon theophrasti), read-out: Visual Growth Reduction (%) 14 Days After Application ABUTH
[4] = AMARE: redroot pigweed (Amaranthus retroflexus), read-out: Visual Growth Reduction (%) 14 Days After Application AMARE
[5] = BRSNN: oilseed-rape, canola (Brassica napus), read-out: Visual Growth Reduction (%) 14 Days After Application BRSNN
[6] = CHEAL: lambsquarters (Chenopodium album), read-out: Visual Growth Reduction (%) 14 Days After Application CHEAL
[7] = EPHHL: wild poinsettia (Euphorbia heterophylla), read-out: Visual Growth Reduction (%) 14 Days After Application EPHHL
[8] = HELAN: sunflower (Helianthus annuus), read-out: Visual Growth Reduction (%) 14 Days After Application HELAN
[9] = VIOTR: wild pansy (Viola tricolor), read-out: Visual Growth Reduction (%) 14 Days After Application VIOTR
[10] = Triticum aestivum, TRZSS (wheat), read-out: Visual Growth Reduction (%) 14 Days After Application, TRZSS
[11] = CYPES: yellow nutsedge (Cyperus esculentus), read-out: Visual Growth Reduction (%) 14 Days After Application, CYPES
[12] = DIGSA: crabgrass (Digitaria sanguinalis), read-out: Visual Growth Reduction (%) 14 Days After Application, DIGSA
[13] = ECHCG: barnyardgrass (Echinochloa crus-galli), read-out: Visual Growth Reduction (%) 14 Days After Application, ECHCG
[14] = ORYSA: rice (Oryza sativa), read-out: Visual Growth Reduction (%) 14 Days After Application, ORYSA
[15] = SETFA: giant foxtail (Setaria faberi), read-out: Visual Growth Reduction (%) 14 Days After Application, SETFA
[16] = SORVU: grain sorghum (Sorghum vulgare), read-out: Visual Growth Reduction (%) 14 Days After Application, SORVU
[17] = ZEAMX: maize, corn (Zea mays), read-out: Visual Growth Reduction (%) 14 Days After Application, ZEAMX

COC(=O)c1nc(-c2ccc(Br)c(F)c2)cc(N)c1Cl [Compound 115, methyl 4-amino-6-(4-bromo-3-fluorophenyl)-3-chloropicolinate]
pest or weed control at 70 g/ha [1, 3]: 85 to 94%
pest or weed control at 140 g/ha [1, 3]: 85 to 94%
pest or weed control at 70 g/ha [1, 4]: 95 to 100%
pest or weed control at 140 g/ha [1, 4]: 95 to 100%
pest or weed control at 70 g/ha [1, 5]: 60 to 74%
pest or weed control at 140 g/ha [1, 5]: 75 to 84%
pest or weed control at 70 g/ha [1, 6]: 95 to 100%
pest or weed control at 140 g/ha [1, 6]: 95 to 100%
pest or weed control at 70 g/ha [1, 7]: 95 to 100%
pest or weed control at 140 g/ha [1, 7]: 95 to 100%
pest or weed control at 70 g/ha [1, 8]: 85 to 94%
pest or weed control at 140 g/ha [1, 8]: 95 to 100%
pest or weed control at 70 g/ha [1, 9]: 95 to 100%
pest or weed control at 140 g/ha [1, 9]: 95 to 100%
pest or weed control at 70 g/ha [2, 10]: 0 to 29%
pest or weed control at 140 g/ha [2, 10]: 0 to 29%
pest or weed control at 70 g/ha [2, 11]: 95 to 100%
pest or weed control at 140 g/ha [2, 11]: 95 to 100%
pest or weed control at 70 g/ha [2, 12]: 85 to 94%
pest or weed control at 140 g/ha [2, 12]: 85 to 94%
pest or weed control at 70 g/ha [2, 13]: 85 to 94%
pest or weed control at 140 g/ha [2, 13]: 85 to 94%
pest or weed control at 70 g/ha [2, 14]: 0 to 29%
pest or weed control at 140 g/ha [2, 14]: 0 to 29%
pest or weed control at 70 g/ha [2, 15]: 0 to 29%
pest or weed control at 140 g/ha [2, 15]: 0 to 29%
pest or weed control at 70 g/ha [2, 16]: 85 to 94%
pest or weed control at 140 g/ha [2, 16]: 95 to 100%
pest or weed control at 70 g/ha [2, 17]: 0 to 29%
pest or weed control at 140 g/ha [2, 17]: 0 to 29%

From patent publication US9113629B2, “4-amino-6-(4-substituted-phenyl)-picolinates and 6-amino-2-(4-substituted-phenyl)-pyrimidine-4-carboxylates and their use as herbicides” (DOW AGROSCIENCES LLC, priority 2013, dated 2015)
